{
  "source": "patent US7759313B2",
  "about": "“Induction method for cell differentiation” (Obschetstvo S Ogranichennoi Otvetstvennostiyu …, priority 2002, dated 2010)",
  "key": {"Friend erythroblastosis": {"system": "Friend erythroblastosis", "assay": "Subcutaneously inoculated Friend erythroblastosis growth", "type": "in vivo, mice", "method": "The studies were conducted on male mice hybrid 100 BDF1 that were divided into groups containing 10 mice each. Lineal DBA2 mice were used for passaging FEB in vivo.\nA strain of Friend erythroblastosis was obtained from the bank of tumor strains of the GU RCRC named after N. N. Blokhin of the RAMS. It was twice passaged intraperitoneally using generations 3-8 in subcutaneous inoculation. The inoculation was done using a cellular suspension of 1×10^6 cells in 0.3 ml […].\nSolutions of the tested compounds were intra-gastrically daily administered to mice using a probe from day 3 to day 7 after tumor inoculation.\nTherapeutic efficacy was assessed on the basis of tumor growth inhibition (TGI, %) and an average life span (ALS). Increase in life span was determined by the commonly accepted criterion T/C (%), which was calculated as a ratio between ALS in the test and control groups. Tumor growth rate Vt/V1 was calculated on the basis of change growth in average tumor volumes."}, "[1]": {"system": "murine B-16 melanoma cells", "assay": "IRCP of B-16 cells, peptide derivatives at 100 μM", "type": "cell-based", "method": "The study was conducted on a continuous cell culture of murine B-16 melanoma growing in the form of a monolayer in a tissue culture. α-Interferon, selected as a preparation of comparison, was administered at concentration 70 IU/ml.\nThe tested compounds were transferred into stock solution (1,000 μM), sterilized through filers with 0.22 μm pore diameter and then diluted down to a concentration of 100 μM.\nThe effect of compounds on cells was assessed on the basis of initial rate of cell proliferation (IRCP). This index was determined by numbering the number of cells in micro colonies during the first days following affection in “test” (with preparations) and “control” (without preparations) dishes, by analyzing 50 colonies in each of them.\nCalculations of cell numbers in micro colonies were done for every “point”. Toxicity was judged by B-16 melanoma cell survival, which was determined by the ratio between numbers of the grown colonies in “test” and “control” dishes."}, "M-6 melanoma": {"system": "M-6 melanoma", "assay": "Morphologic parameters of M-6 melanoma in nude mice (light microscopy)", "type": "in vivo, mouse (mouse (mouse (mouse (mouse (mouse (mouse (mouse (mouse (mouse (mouse (mouse (human melanoma xenograft) melanoma xenograft) melanoma xenograft) melanoma xenograft) melanoma xenograft) melanoma xenograft) melanoma xenograft) melanoma xenograft) melanoma xenograft) melanoma xenograft) melanoma xenograft) melanoma xenograft)", "method": "The study was conducted on 10-12 week old thymus free (nude) female Balb/C mice weighing 20-22 grams (breeding of the Russian Cancer Research Center (RCRC) named after N. N. Blokhin of the Russian Academy of Medical Sciences (RAMS)). A human melanoma strain earlier obtained from primary clinical material was taken from the bank of tumor strains of the RCRC of the RAMS for transplantation to thymus free “nude” mice. Tumor was disintegrated by Versen solution with vital Trypan blue staining and inoculated subcutaneously to mice in the amount of 1.6 million cells per mouse.\nDicarbamine was administered to mice intragastrically using a metal probe daily at dose 1.0 mg/kg beginning 4 days before the tumor inoculation and thereafter for 10-11 days (administration course up to 15 days). The mice were sacrificed with ether anesthesia in 12, 24 and 48 hours after the last administration.\nFour morphologic parameters, such as the number of cells with pigment and the number of cells with apoptosis signs (capability to differentiate), the number of mitoses (proliferation activity), and necrosis area, were determined to monitor the degree of differentiation and proliferation of M-6 melanoma cells in the groups of control animals and in the Dicarbamine groups. These parameters were determined dynamically and correlated with general morphologic picture of a tumor growth as an integral sign. For this purpose, the tumors were removed from the mice, placed into formalin, and histologically processed for light microscopy."}, "human M-5 melanoma cells": {"system": "human M-5 melanoma cells", "assay": "Initial rate of cell proliferation (IRCP), M-5 cells", "type": "cell-based", "method": "The study was conducted on two continuous cell cultures growing in the form of a monolayer in a tissue culture (on murine B-16 melanoma cells and human M-5 melanoma cells). […] Dicarbamine (D) was transferred into stock solution (1.000 μM), sterilized through filters with 0.22 μm pore diameter and then diluted to concentrations 0.01 and 1.0 μM.\nThe effect of preparations on cells was assessed on the basis of initial rate of cell proliferation (IRCP). This index (IRCP), which is usually called colony rate growth, was determined by numbering the number of cells in micro colonies during the first days following affection in “test” (with preparations) and “control” (without preparations) dishes, by analyzing 50 colonies in each of them. Each “point” included […] three Petri dishes with growing cell colonies in adding specific concentrations of preparations under study. Growth rate of colonies (in %) was calculated according to the formula: […]\nCell numbers in micro colonies were calculated for every “point”. Toxicity of preparations in the selected range of concentrations was judged by cell survival, which was determined by the ratio between numbers of the colonies grown in “test” and “control” dishes."}, "[2]": {"assay": "Peripheral blood leukocytes formula under Cyclophosphamide", "type": "in vivo, mice", "details": "mouse, in vivo", "excerpt": "Two groups of mice are used."}, "[3]": {"details": "1.5 mg/kg daily for 5 days, day 8"}, "[4]": {"details": "1.5 mg/kg daily for 5 days, day 13"}, "[5]": {"details": "1.5 mg/kg daily for 5 days, day 19"}, "[6]": {"details": "4.5 mg/kg daily for 5 days, day 8"}, "[7]": {"details": "4.5 mg/kg daily for 5 days, day 13"}, "[8]": {"details": "4.5 mg/kg daily for 5 days, day 19"}, "[9]": {"details": "1.0 mg/kg daily, 12 hours since withdrawal"}, "[10]": {"details": "1.0 mg/kg daily, 24 hours since withdrawal"}, "[11]": {"details": "1.0 mg/kg daily, 48 hours since withdrawal"}},
  "note": "“And” between values parts separate entries of the source, which are not always exact repeats. Equal entries are not always repeated. Marks after values point to notes of the source that are not given here.",
  "data": [
    {"compound": "O=C(O)CCCC(=O)NCCc1c[nH]cn1", "note": "[Dicarbamine]", "values": [
      {"measurement": "Relative tumor volumes Vt/V1 at days after tumor inoculation", "setting": "Friend erythroblastosis; [3]", "value": 1.0},
      {"measurement": "Tumor growth inhibition", "setting": "Friend erythroblastosis; [3]", "value": 61, "unit": "%"},
      {"measurement": "Relative tumor volumes Vt/V1", "setting": "Friend erythroblastosis; [4]", "value": 1.56},
      {"measurement": "Tumor growth inhibition", "setting": "Friend erythroblastosis; [4]", "value": "78* %"},
      {"measurement": "Relative tumor volumes Vt/V1", "setting": "Friend erythroblastosis; [5]", "value": 3.0},
      {"measurement": "Tumor growth inhibition", "setting": "Friend erythroblastosis; [5]", "value": 55, "unit": "%"},
      {"measurement": "Relative tumor volumes Vt/V1", "setting": "Friend erythroblastosis; [6]", "value": 1.0},
      {"measurement": "Tumor growth inhibition", "setting": "Friend erythroblastosis; [6]", "value": 62, "unit": "%"},
      {"measurement": "Relative tumor volumes Vt/V1", "setting": "Friend erythroblastosis; [7]", "value": 2.3},
      {"measurement": "Tumor growth inhibition", "setting": "Friend erythroblastosis; [7]", "value": 58, "unit": "%"},
      {"measurement": "Relative tumor volumes Vt/V1", "setting": "Friend erythroblastosis; [8]", "value": 3.76},
      {"measurement": "Tumor growth inhibition", "setting": "Friend erythroblastosis; [8]", "value": 38, "unit": "%"},
      {"measurement": "Initial rate of cell proliferation (% cells/colony relative to the control)", "setting": "[1]; 48 hours", "value": "30.8 ± 2.8", "unit": "%"},
      {"measurement": "Initial rate of cell proliferation (% cells/colony relative to the control)", "setting": "[1]; 72 hours", "value": "28.2 ± 2.2", "unit": "%"},
      {"measurement": "Apoptosis", "setting": "M-6 melanoma; [9]", "value": "0.1–0.2%"},
      {"measurement": "Cells with pigment", "setting": "M-6 melanoma; [9]", "value": "2–3%"},
      {"measurement": "Mitoses", "setting": "M-6 melanoma; [9]", "value": "3–5%"},
      {"measurement": "Apoptosis", "setting": "M-6 melanoma; [10]", "value": "0.2–0.3%"},
      {"measurement": "Cells with pigment", "setting": "M-6 melanoma; [10]", "value": "2–4%"},
      {"measurement": "Mitoses", "setting": "M-6 melanoma; [10]", "value": "3–5%"},
      {"measurement": "Necrosis area", "setting": "M-6 melanoma; [10]", "value": "7–9%"},
      {"measurement": "Apoptosis", "setting": "M-6 melanoma; [11]", "value": "0.2–0.3%"},
      {"measurement": "Cells with pigment", "setting": "M-6 melanoma; [11]", "value": "3–5%"},
      {"measurement": "Mitoses", "setting": "M-6 melanoma; [11]", "value": "3–5%"},
      {"measurement": "Necrosis area", "setting": "M-6 melanoma; [11]", "value": "8–10%"},
      {"measurement": "Necrosis area", "setting": "M-6 melanoma; 1.0 mg/kg intragastrically daily up to 15 days, 12 hours since withdrawal", "value": "6–7%"},
      {"measurement": "Initial rate of cell proliferation (% cells/colony relative to the control)", "setting": "human M-5 melanoma cells; D 0.01 μM, 48 hours", "value": "82.4% and 84.2%"},
      {"measurement": "Initial rate of cell proliferation", "setting": "human M-5 melanoma cells; D 0.01 μM, 72 hours", "value": 73.6, "unit": "%"},
      {"measurement": "Initial rate of cell proliferation", "setting": "human M-5 melanoma cells; D 0.01 μM, 96 hours", "value": 70.2, "unit": "%"},
      {"measurement": "Initial rate of cell proliferation", "setting": "human M-5 melanoma cells; D 1.0 μM, 48 hours", "value": 69.0, "unit": "%"},
      {"measurement": "Initial rate of cell proliferation", "setting": "human M-5 melanoma cells; D 1.0 μM, 72 hours", "value": 50.0, "unit": "%"},
      {"measurement": "Initial rate of cell proliferation", "setting": "human M-5 melanoma cells; D 1.0 μM, 96 hours", "value": 49.1, "unit": "%"},
      {"measurement": "Initial rate of cell proliferation", "setting": "human M-5 melanoma cells; IN 7.0 IU/ml + D 0.01 μM, 48 hours", "value": 79.1, "unit": "%"},
      {"measurement": "Initial rate of cell proliferation", "setting": "human M-5 melanoma cells; IN 7.0 IU/ml + D 0.01 μM, 72 hours", "value": 49.1, "unit": "%"},
      {"measurement": "Initial rate of cell proliferation", "setting": "human M-5 melanoma cells; IN 7.0 IU/ml + D 0.01 μM, 96 hours", "value": 46.9, "unit": "%"},
      {"measurement": "Initial rate of cell proliferation", "setting": "human M-5 melanoma cells; IN 7.0 IU/ml + D 1.0 μM, 48 hours", "value": 54.7, "unit": "%"},
      {"measurement": "Initial rate of cell proliferation", "setting": "human M-5 melanoma cells; IN 7.0 IU/ml + D 1.0 μM, 72 hours", "value": 36.9, "unit": "%"},
      {"measurement": "Initial rate of cell proliferation", "setting": "human M-5 melanoma cells; IN 7.0 IU/ml + D 1.0 μM, 96 hours", "value": 33.3, "unit": "%"},
      {"measurement": "Initial rate of cell proliferation", "setting": "human M-5 melanoma cells; IN 70.0 IU/ml + D 0.01 μM, 48 hours", "value": 40.5, "unit": "%"},
      {"measurement": "Initial rate of cell proliferation", "setting": "human M-5 melanoma cells; IN 70.0 IU/ml + D 0.01 μM, 72 hours", "value": 34.9, "unit": "%"},
      {"measurement": "Initial rate of cell proliferation", "setting": "human M-5 melanoma cells; IN 70.0 IU/ml + D 0.01 μM, 96 hours", "value": "31.0% and 31.7%"},
      {"measurement": "Initial rate of cell proliferation", "setting": "human M-5 melanoma cells; IN 70.0 IU/ml + D 1.0 μM, 48 hours", "value": 30.7, "unit": "%"},
      {"measurement": "Initial rate of cell proliferation", "setting": "human M-5 melanoma cells; IN 70.0 IU/ml + D 1.0 μM, 72 hours", "value": "24.0% and 24.5%"},
      {"measurement": "Initial rate of cell proliferation", "setting": "human M-5 melanoma cells; IN 70.0 IU/ml + D 1.0 μM, 96 hours", "value": 23.9, "unit": "%"},
      {"measurement": "toxicity according to the survival index", "setting": "human M-5 melanoma cells; M-5 cells", "value": "does not show toxicity"},
      {"measurement": "Myelocytes", "setting": "[2]", "value": 0, "unit": "in mm^3"}
    ]}
  ]
}
